Source: patent US12359236B2, “Production of 2-hydroxyacyl-CoAs and derivatives thereof” (Mojia Biotech Pte. Ltd., priority 2019, dated 2025)

Experiments:
Assay type in all cases: biochemical
formaldehyde = assay: Cell-free prototyping of one carbon bioconversion pathway with E. coli cell extracts; details: for performance of enzyme variant in cell-free glycolic acid pathway: mixed extracts of HACL and ACR variants, formaldehyde as sole carbon source
Experimental: Cell-free reactions for pathway prototyping contained 50 mM KPi pH 7.4, 4 mM MgCl2, 0.1 mM TPP, 2.5 mM CoASH, 5 mM NAD^+, and 50 mM formaldehyde. For time course experiments, 0.1 mM coenzyme B12 was added. Individual cell extract loading was around 4.4 g/L protein (⅛ of the reaction volume), and the amount of protein added to each reaction was normalized with BL21(DE3) extract to ˜26 g/L protein (¾ of the reaction volume). Reactions were incubated at room temperature for one hour unless otherwise specified. ¼ of the reaction volume of saturated ammonium sulfate solution acidified with 1% sulfuric acid was added to terminate the reactions. Samples were centrifuged at 20817×g for 15 minutes and the supernatant analyzed by HPLC or GC-MS as described below. For isotope labeling experiments, 13C formaldehyde (Cambridge Isotope Laboratories, Tewksbury, MA) was used.
We combined extracts of E. coli, prepared as described in the previous example(s), expressing variants of HACL and ACR to rapidly screen for the best performing combinations. […] The combination of LmACR and RuHACL enabled the production of 6.2±0.6 mM glycolic acid in 1 hr. The use of 13C-labeled formaldehyde confirmed that the observed glycolic acid was derived from the C1 substrate, judging by the +2 shift in m/z of the [M-15]^+ ion (FIG. 13C).
Quantification of product and substrate concentrations (formic acid, formaldehyde, glycolic acid, ethylene glycol, ethanol, acetic acid) were determined via HPLC using a Shimadzu Prominence SIL 20 system (Shimadzu Scientific Instruments, Inc., Columbia, MD) equipped with a refractive index detector and an HPX-87H organic acid column (Bio-Rad, Hercules, CA) with operating conditions to optimize peak separation (0.3 ml/min flowrate, 30 mM H2SO4 mobile phase, column temperature 42° C.). Compound identification and analysis was performed by GC-MS using an Agilent 7890B Series Custom Gas Chromatography system equipped with a 5977B Inert Plus Mass Selective Detector Turbo EI Bundle (for identification) and an Agilent HP-5-ms capillary column (0.25 mm internal diameter, 0.25 μm film thickness, 30 m length).

[1] = tested on: Rhodospirillales bacterium URHD0017 2-hydroxyacyl-CoA lyase (RuHACL) variant G390N (RuHACL^G390N); assay: Kinetics of the C1 condensation reaction of the G390N RuHACL mutant on formyl-CoA and formaldehyde; details: in vitro, formyl-CoA and formaldehyde as substrates
[2] = target: Rhodospirillales bacterium URHD0017 2-hydroxyacyl-CoA lyase (RuHACL), wild type, UniProt: A0A1H8YFL8; assay: Kinetics of RuHACL-catalyzed condensation (ligation) of acetone with formyl-CoA; details: 0.5 μM purified RuHACL, 1 mM formyl-CoA, acetone varied, 50 mM KPi pH 7.4, 2.5 mM MgCl2, 0.1 mM TPP, room temperature, 1 min; Michaelis-Menten fit
Experimental: 0.5 μM purified RuHACL was incubated with 1 mM formyl-CoA in a reaction mixture also containing 50 mM KPi pH 7.4, 2.5 mM MgCl2, and 0.1 mM TPP. The concentration of acetone was varied, and room temperature reactions were carried out for 1 min. 40 μL samples were quenched by addition of 10 μL 0.5 M NaOH and placed on ice. 12.5 μL of a saturated ammonium sulfate solution acidified with 1% sulfuric acid was added and the samples were analyzed by HPLC for the determination of the initial reaction rates after centrifugation at 20817×g for 15 minutes. […] The apparent kcat of RuHACL on acetone was 2.7±0.8 s^−1 while the KM was 1.57±0.68 M, corresponding to a catalytic efficiency of 1.7±0.9 s^−1 M^−1.

For “HsHACL1: 2-hydroxyacyl-CoA lyase HACL1 from Homo sapiens”, the “performance of enzyme variant in cell-free glycolic acid pathway” value (formaldehyde) was “enabling product synthesis”.

In the case of CC(C)(COP(=O)(O)OP(=O)(O)OC[C@H]1O[C@@H](n2cnc3c(N)ncnc32)[C@H](O)[C@@H]1OP(=O)(O)O)[C@@H](O)C(=O)NCCC(=O)NCCSC=O [formyl-CoA], the “KM of the mutant compared to the wild type” value [1] is reported as “no significant difference” and the “kcat of the mutant compared to the wild type” value [1] is reported as “no significant difference”.

In the case of C=O [formaldehyde], the “KM of the mutant compared to the wild type” value [1] is reported as “no significant difference” and the “kcat of the mutant compared to the wild type” value [1] is reported as “no significant difference”.

CC(C)=O [acetone] was tested, and the “apparent kcat on acetone” value [2] was 2.7 ± 0.8 s⁻¹.

B1: FucO: E. coli 1,2-diol oxidoreductase, added as cell extract (protein, UniProt P0A9S1 1-382, looked up)
Lactaldehyde reductase: MANRMILNETAWFGRGAVGALTDEVKRRGYQKALIVTDKTLVQCGVVAKVTDKMDAAGLAWAIYDGVVPNPTITVVKEGLGVFQNSGADYLIAIGGGSPQDTCKAIGIISNNPEFADVRSLEGLSPTNKPSVPILAIPTTAGTAAEVTINYVITDEEKRRKFVCVDPHDIPQVAFIDADMMDGMPPALKAATGVDALTHAIEGYITRGAWALTDALHIKAIEIIAGALRGSVAGDKDAGEEMALGQYVAGMGFSNVGLGLVHGMAHPLGAFYNTPHGVANAILLPHVMRYNADFTGEKYRDIARVMGVKVEGMSLEEARNAAVEAVFALNRDVGIPPHLRDVGVRKEDIPALAQAALDDVCTGGNPREATLEDIVELYHTAW
modifications: cell extract
notes: E. coli 1,2-diol oxidoreductase, added as cell extract
In the case of B1, the ethylene glycol synthesis (formaldehyde; extract added to LmACR+RuHACL pathway) is reported as 2.73 ± 0.03 mM and the “fold increase of ethylene glycol” value (formaldehyde; from 1.37±0.1 mM to 2.73±0.03 mM) is reported as 2 fold.

B2: OfOxc: oxalyl-CoA decarboxylase from Oxalobacter formigenes (protein, UniProt P40149 1-568, looked up)
Oxalyl-CoA decarboxylase: MSNDDNVELTDGFHVLIDALKMNDIDTMYGVVGIPITNLARMWQDDGQRFYSFRHEQHAGYAASIAGYIEGKPGVCLTVSAPGFLNGVTSLAHATTNCFPMILLSGSSEREIVDLQQGDYEEMDQMNVARPHCKASFRINSIKDIPIGIARAVRTAVSGRPGGVYVDLPAKLFGQTISVEEANKLLFKPIDPAPAQIPAEDAIARAADLIKNAKRPVIMLGKGAAYAQCDDEIRALVEETGIPFLPMGMAKGLLPDNHPQSAAATRAFALAQCDVCVLIGARLNWLMQHGKGKTWGDELKKYVQIDIQANEMDSNQPIAAPVVGDIKSAVSLLRKALKGAPKADAEWTGALKAKVDGNKAKLAGKMTAETPSGMMNYSNSLGVVRDFMLANPDISLVNEGANALDNTRMIVDMLKPRKRLDSGTWGVMGIGMGYCVAAAAVTGKPVIAVEGDSAFGFSGMELETICRYNLPVTVIIMNNGGIYKGNEADPQPGVISCTRLTRGRYDMMMEAFGGKGYVANTPAELKAALEEAVASGKPCLINAMIDPDAGVESGRIKSLNVVSKVGKK
With B2 the “performance of enzyme variant in cell-free glycolic acid pathway” value (formaldehyde) was “capable of catalyzing the pathway”.
